Reference: US10633419B2, “Immunomodulators” (BRISTOL-MYERS SQUIBB COMPANY, priority 2014, dated 2020)
Positions of bridges follow the written chain, without caps; N, C: chain ends. Non-standard residues stand in square brackets, D forms with d. Residues, ends and D or L forms follow the SMILES beside them. *: point of attachment. X17 = COCCOCCOCCOCCOCCOCCOCCOCCOCCOCCOCCOCCOCCOCCOCCOCCOCCOCCOCCOCCOCCOCCOCCOCCOCCOCCOCCOCCOCCOCCOCCOCCOCCOCCOCCOCCOCCOCCOCCOCCOCCOCCOCCOCCOCCOCCOCCOCCOCCC(=O)*; δOrn(Nα-Octadecanedioyl) = O=C(O)CCCCCCCCCCCCCCCCC(=O)N[C@@H](CCCN*)C(=O)O; Ala(1-CH2COOH-inden-3-yl) = N[C@@H](CC1=CC(CC(=O)O)c2ccccc21)C(=O)O; Trp(1-CH2COOH) = N[C@@H](Cc1cn(CC(=O)O)c2ccccc12)C(=O)O; X8 = O=C(O)CCCCCCCCCCCCNC(=O)CCC(=O)NCCCOCCOCCOCCCN*; Phe(3,4,5-F3) = N[C@@H](Cc1cc(F)c(F)c(F)c1)C(=O)O; Phe(4-F) = N[C@@H](Cc1ccc(F)cc1)C(=O)O; d(cisHyp) = O=C(O)[C@H]1C[C@@H](O)CN1; Hyp = O=C(O)[C@@H]1C[C@@H](O)CN1; NMeF = CN[C@@H](Cc1ccccc1)C(=O)O; NMeNle = CCCC[C@H](NC)C(=O)O; X20 = O=C(O)CCCCCCCCCCCCCN*; Pip = O=C(O)[C@@H]1CCCCN1; dPip = O=C(O)[C@H]1CCCCN1; NMeA = CN[C@@H](C)C(=O)O; Pra = C#CC[C@H](N)C(=O)O; Aun = NCCCCCCCCCCC(=O)O; Dab = NCC[C@H](N)C(=O)O; Dap = NC[C@H](N)C(=O)O

Molecular target: T1, PD-L1 (Homo sapiens, UniProt Q9NZQ7)
T1 construct: hPDL1(19-239)-TVMV-His; made in house; host or cells: HEK293T
T1 sequence (Q9NZQ7 with tags, fused parts or gaps): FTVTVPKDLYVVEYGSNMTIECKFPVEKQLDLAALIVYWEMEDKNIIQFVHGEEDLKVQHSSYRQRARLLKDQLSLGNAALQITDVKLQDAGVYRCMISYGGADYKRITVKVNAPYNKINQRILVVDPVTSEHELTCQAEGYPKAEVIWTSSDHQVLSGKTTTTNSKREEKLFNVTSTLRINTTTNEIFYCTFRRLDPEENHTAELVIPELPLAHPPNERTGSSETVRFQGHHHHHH
Assay: PD-1/PD-L1 Homogenous Time-Resolved Fluorescence (HTRF) binding assay (PD-1-Ig/PD-L1-His)
Conditions: inhibition of PD-1-Ig binding to PD-L1-TVMV-His; value given as number; read-out: HTRF IC50
Outline: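 Inhibitors pre-incubated 15 min with PD-L1-His (10 nM final), then PD-1-Ig (20 nM final) added for 15 min in dPBS/0.1% BSA/0.05% Tween-20. Eu-cryptate anti-Ig (1 nM) and APC anti-His (20 nM) added, 30 min equilibration, 665/620 nm HTRF ratio read.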

`CCCC[C@H]1C(=O)N2C[C@H](O)C[C@@H]2C(=O)N[C@@H](CC(=O)O)C(=O)N[C@@H](C(C)C)C(=O)N(C)[C@@H](Cc2ccccc2)C(=O)N[C@@H](Cc2ccc(O)cc2)C(=O)N2CCCC[C@@H]2C(=O)N[C@@H](Cc2c[nH]c3ccccc23)C(=O)N[C@@H](Cc2ccc(O)cc2)C(=O)N[C@@H](CC(C)C)C(=O)N[C@H](C(=O)NCC(=O)NCC(=O)NCC(=O)N[C@@H](CCCCNC(=O)CCOCCOCCOCCOCCOCCOCCOCCOCCOCCOCCOCCOCCOCCOCCOCCOCCOCCOCCOCCOCCOCCOCCOCCOCCOCCOCCOCCOCCOCCOCCOCCOCCOCCOCCOCCOCCOCCOCCOCCOCCOCCOCCOCCOCCOCCOCCOCCOCCOC)C(N)=O)CSCC(=O)N[C@@H](Cc2cc(F)c(F)c(F)c2)C(=O)N(C)[C@@H](Cc2ccccc2)C(=O)N1C` [Example 3625] ({CH2CO}-[Phe(3,4,5-F3)][NMeF][NMeNle][d(cisHyp)]DV[NMeF]Y[dPip]WYLCGGGK(X17)-NH2; thioether N-13) showed an IC50 of 6.3 nM.

Same assay, conditions: inhibition of PD-1-Ig binding to PD-L1-TVMV-His; value given as range class; read-out: HTRF IC50

`CCCC[C@H]1C(=O)N(C)[C@@H](CCCC)C(=O)N[C@@H](CC(C)C)C(=O)N[C@H](C(=O)NCCCOCCOCCOCCCNC(=O)CCC(=O)NCCCCCCCCCCCCC(=O)O)CSCC(=O)N[C@@H](Cc2ccc(O)cc2)C(=O)N(C)[C@@H](C)C(=O)N[C@@H](CC(=O)O)C(=O)N2CCC[C@H]2C(=O)N[C@@H](Cc2cnc[nH]2)C(=O)N[C@@H](CCCCN)C(=O)N2C[C@H](O)C[C@H]2C(=O)N[C@@H](Cc2c[nH]c3ccccc23)C(=O)N[C@@H](CCCCN)C(=O)N[C@@H](Cc2cn(CC(=O)O)c3ccccc23)C(=O)N1C` [Example 11219] ({CH2CO}-Y[NMeA]DPHK[Hyp]WK[Trp(1-CH2COOH)][NMeNle][NMeNle]LC-X8; thioether N-14) and `CCCC[C@H]1C(=O)N(C)[C@@H](CCCC)C(=O)N[C@@H](CC(C)C)C(=O)N[C@H](C(=O)NCC(=O)NCC(=O)N[C@@H](CC(=O)O)C(=O)NCCCCCCCCCCCCCC(=O)O)CSCC(=O)N[C@@H](Cc2ccc(O)cc2)C(=O)N(C)[C@@H](C)C(=O)N[C@@H](CC(N)=O)C(=O)N2CCC[C@H]2C(=O)N[C@@H](CN)C(=O)N[C@@H](CC(C)C)C(=O)N2C[C@H](O)C[C@@H]2C(=O)N[C@@H](Cc2c[nH]c3ccccc23)C(=O)N[C@@H](CCN)C(=O)N[C@@H](Cc2cn(CC(=O)O)c3ccccc23)C(=O)N1C` [Example 11201] ({CH2CO}-Y[NMeA]NP[Dap]L[d(cisHyp)]W[Dab][Trp(1-CH2COOH)][NMeNle][NMeNle]LCGGD-X20; thioether N-14) fall in the same range of IC50: 10 to 99 nM for the first, 10 to 99 nM for the second.

Compared with `C#CC[C@H](NC(=O)CNC(=O)[C@@H]1CSCC(=O)N[C@@H](Cc2ccc(O)cc2)C(=O)N(C)[C@@H](C)C(=O)N[C@@H](CC(=O)O)C(=O)N2CCC[C@H]2C(=O)N[C@@H](Cc2c[nH]cn2)C(=O)N[C@@H](CCCCN)C(=O)N2C[C@H](O)C[C@H]2C(=O)N[C@@H](Cc2c[nH]c3ccccc23)C(=O)N[C@@H](CCCCN)C(=O)N[C@@H](Cc2c[nH]c3ccccc23)C(=O)N(C)[C@@H](CCCC)C(=O)N(C)[C@@H](CCCC)C(=O)N[C@@H](CCC(=O)O)C(=O)N1)C(N)=O` [INT 1400F, ClAc-Tyr-mAla-Asp-Pro-His-Lys-Hyp-Trp-Lys-Trp-mNle-mNle-Glu-Cys-Gly-[(S)-propargylglycine]] ({CH2CO}-Y[NMeA]DPHK[Hyp]WKW[NMeNle][NMeNle]ECG[Pra]-NH2; thioether N-14), `CCCC[C@H]1C(=O)N(C)[C@@H](CCCC)C(=O)N[C@@H](CC(C)C)C(=O)N[C@H](C(=O)NCCCCCCCCCCC(=O)O)CSCC(=O)N[C@@H](Cc2ccc(O)cc2)C(=O)N(C)[C@@H](C)C(=O)N[C@@H](CC(N)=O)C(=O)N2CCC[C@H]2C(=O)N[C@@H](Cc2cnc[nH]2)C(=O)N[C@@H](CCC(=O)O)C(=O)N2C[C@H](O)C[C@H]2C(=O)N[C@@H](Cc2c[nH]c3ccccc23)C(=O)N[C@@H](CCN)C(=O)N[C@@H](CC2=CC(CC(=O)O)c3ccccc32)C(=O)N1C` (stereo partly drawn) [Example 11076] ({CH2CO}-Y[NMeA]NPHE[Hyp]W[Dab][Ala(1-CH2COOH-inden-3-yl)][NMeNle][NMeNle]LC[Aun]-OH; thioether N-14) is higher in IC50: 0.3 to 9.9 nM for the first, 10 to 99 nM for the second. The first is the more potent here.

`CCCC[C@H]1C(=O)N(C)[C@@H](CCCC)C(=O)N[C@@H](CC(C)C)C(=O)N[C@H](C(=O)NCC(=O)N[C@@H](CC(=O)NCCC[C@H](NC(=O)CCCCCCCCCCCCCCCCC(=O)O)C(=O)O)C(=O)O)CSCC(=O)N[C@@H](Cc2ccc(F)cc2)C(=O)N2CCCC[C@H]2C(=O)N[C@@H](CC(=O)O)C(=O)N2CCC[C@H]2C(=O)N[C@@H](CN)C(=O)N[C@@H](CC(C)C)C(=O)N2C[C@H](O)C[C@H]2C(=O)N[C@@H](Cc2c[nH]c3ccccc23)C(=O)N[C@@H](CCN)C(=O)N[C@@H](Cc2cn(CC(=O)O)c3ccccc23)C(=O)N1C` [Example 13145] ({CH2CO}-[Phe(4-F)][Pip]DP[Dap]L[Hyp]W[Dab][Trp(1-CH2COOH)][NMeNle][NMeNle]LCGD(δOrn(Nα-Octadecanedioyl))-OH; thioether N-14) showed an IC50 of 10 to 99 nM.
